The results in this text go back to US20230233671A1, “RNA MOLECULES” (Pfizer Inc., priority 2021, published 2023).

One data set has as its system Vero cells. Nature of the data set: VZV gE expression and subcellular localization in Vero cells transfected with VZV RNA constructs (imaging). Type of data set: cell-based, African green monkeys. The settings on record: for VZV RNA (Vero cells) MFI: Table 7, VZV gE RNA, see Example 2. As for the experimental part:
Expression of VZV RNA constructs were tested in transfected Vero cells, a kidney epithelial cell culture line derived from African green monkeys. Seeded Vero cells were transfected for 24 hours at 37° C., 5% CO2 with 10 ng, 25 ng, or 50 ng of RNA constructs (Table 5) using MESSENGERMAX™ in accordance with the manufacturer's instructions. Cells were washed three times with PBS+Ca/Mg, and fixed in 4% paraformaldehyde (PFA) for 20 minutes at 25° C. Cells were washed twice with 3% bovine serum albumin (BSA) in PBS+Ca/Mg. Primary and secondary staining antibodies were diluted in 0.1% saponin in goat serum. Cells were stained with a 1:1000 dilution of primary antibody for 1 hour at 37° C., washed three times with PBS+Ca/Mg, and incubated with secondary antibody (1:500) and CELLMASK™ (1:140,000) for 45 minutes at 37° C. Cells were then stained with Dapi (1:15,000-1:20,000) for 15 minutes at 25° C., and washed three times with PBS+Ca/Mg. Cells were analyzed for VZV gE expression and subcellular localization using an Opera PHENIX® Plus High-Content Screening System at 10× or 63× magnification.

The test system of data set [1] is human embryonic kidney (HEK) 293T cells. Put plainly: In vitro expression (IVE) of VZV RNA-LNP vaccines in HEK 293T cells (FACS). Conditions: for VZV RNA-LNPs (293T cells) MFI: Table 7; for VZV RNA-LNPs (293T cells) EC50 (ng/well): Table 7, FIG. 14, input RNA vs percentage of gE-expressing cells, 24 hours. Type of data set: cell-based. The method, then: In vitro expression (IVE) analyses were conducted to assess the potency of VZV RNA-LNP vaccines. RNA constructs were formulated into LNPs as previously described in Example 3, and a range of input VZV RNA-LNP quantities was transfected into human embryonic kidney (HEK) 293T cells for 24 hours at 37° C., 5% CO2. Transfected cells were washed with DPBS, detached from plate wells using ACCUTASE®, and rinsed with cold PBS. Cells were subjected to live/dead staining, fixation, and permeabilization prior to FACS staining. Fixed and permeabilized cells were incubated with an anti-gE primary antibody (1:1000) for 45 minutes at 2-8° C., washed twice with BD PERM/WASH™ buffer and incubated with a goat anti-human kappa-PE secondary antibody (1:1000) for 30 minutes at 2-8° C. Cells were washed twice with BD PERM/WASH™ buffer, resuspended in 1×FACS buffer, and analyzed on a BD LSRII to determine the proportion of cells expressing VZV gE for each VZV RNA-LNP input. A titration curve was created whereby input RNA quantities were plotted against the percentage of gE-expressing cells to determine the EC50 of each VZV RNA-LNP vaccine.

Another data set concerns VZV gE. Put plainly: Serum VZV gE-binding IgG levels (LUMINEX) in immunized Balb/c mice. The class given is in vivo. The settings on record: for Day 28 (GMC), serum gE-binding IgG: 0.5 μg IM Day 0, Day 28 (prime only); for Day 34 (GMC), serum gE-binding IgG: 0.5 μg IM Days 0 and 28, Day 34 (six days after boost); for Day 42 (GMC), serum gE-binding IgG: 0.5 μg IM Days 0 and 28, Day 42 (two weeks after booster). The method, then: VZV RNA-LNP vaccines were tested for their ability to induce IgG and T cell responses in Balb/c mice. 15 mice per group were immunized in accordance with the schedule and specifications in Table 9. Briefly, 15 mice per group were immunized intramuscularly (IM) on Day 0 and boosted IM on Day 28. Mice immunized with SHINGRIX® received 1, 2.5, or 5 μg, corresponding to 1/50, 1/20, and 1/10 of the human clinical dose (50 μg), respectively; mice immunized with gE_WT CO1 received 0.5 or 1 μg; mice immunized with ms3 CO1 received 0.5 μg; mice immunized with ms4 CO1 received 0.5 μg; mice immunized with gE_WT CO2 received 0.5 μg; mice immunized with lyophilized gE_WT CO1 received 0.5 or 1 μg. Saline was administered on Days 0 and 28 to a negative control group. Serum was collected from mice on Days 28 and 42 for characterization of VZV gE-binding IgG levels (LUMINEX® analyses). Spleens were harvested, and sera collected, from five mice in each group on Day 35 for cellular analyses.
Serum IgG levels were determined for each mouse sample using the LUMINEX® platform. Briefly, diluted sera were incubated in the dark in the presence of blocked, recombinant gE protein-bound single-plex microspheres (MAGPLEX® Microspheres, region 79) for 20±4 hours at 2-8° C., 300 rpm. A secondary antibody solution (R-phycoerythrin Conjugated AffiniPure F(ab)′2 Fragment Goat Anti-Mouse IgG F(ab)′2 Fragment Specific) was prepared at 1:250 in LXA-16 buffer. Plates were washed three times in LXA-20 (EIA-7), and secondary antibody was applied to each well of the assay plate. Plates were covered with aluminum sealers and incubated for 2 hours±15 minutes at 25° C., 300 rpm. Plates were washed three times with LXA-20 (EIA-7) buffer, and 100 ul LXA-20 was applied to each well. Plates were covered with aluminum sealers and incubated at 25° C., 300 rpm for a minimum of 4 minutes, or up to 2 hours. Plates were analyzed on a BIO-PLEX® Reader. IgG titers for Day, 28, 34 and 42 are show in Table 10 and FIGS. 17-19.

With “ms3 CO1: modRNA construct, ORF SEQ ID NO: 149, VZV gE with deletion of aa 547-623, secreted”, the “VZV RNA (Vero cells) MFI” value in the data set with Vero cells was found to be 497. In data set [1], the “VZV RNA-LNPs (293T cells) MFI” value was found to be 663 and the “VZV RNA-LNPs (293T cells) EC50 (ng/well)” value came out at 231 ng/well. For the same substance, in the data set on VZV gE, the “Day 28 (GMC), serum gE-binding IgG” value worked out at 3.98; the “Day 34 (GMC), serum gE-binding IgG” value was 29.5; the “Day 42 (GMC), serum gE-binding IgG” value was 370.11.
In the case of “ms4 CO1: modRNA construct, ORF SEQ ID NO: 151, full length VZV gE with substitution Y582A”, in the data set with Vero cells, the “VZV RNA (Vero cells) MFI” value is recorded as 981. Moreover, in data set [1], the “VZV RNA-LNPs (293T cells) MFI” value stood at 1713 and the “VZV RNA-LNPs (293T cells) EC50 (ng/well)” value is recorded as 15 ng/well. In addition, in the data set with VZV gE, the “Day 28 (GMC), serum gE-binding IgG” value was found to be 3.55; the “Day 34 (GMC), serum gE-binding IgG” value came to 112.7; the “Day 42 (GMC), serum gE-binding IgG” value turned out to be 598.57.
As to “ms8: RNA constructs encoding VZV gE with deletion of the acidic domain aa 588-602 (SEQ ID NO: 6)”, the “subcellular localization of VZV gE” value with Vero cells (Vero cells, 50 ng at 63× and 25 ng at 10× magnification) is on record as “preferentially within cellular membranes”.
